The numbers were not newly measured in patent US20120071320A1, “LIQUID AGRICULTURAL FORMULATIONS OF IMPROVED STABILITY” (priority 2010, published 2012), which cites them from elsewhere.

For this data set the following is noted: aqueous buffer solutions, both acidic and basic conditions.

As to `COC(=O)c1sccc1S(=O)(=O)NC(=O)Nc1nc(C)nc(OC)n1` [thifensulfuron methyl], the hydrolysis rate entry is “relatively fast”.
